We go through one substance from patent EP1115421B1, “USE OF GLP-1 OR ANALOGS IN TREATMENT OF STROKE” (ELI LILLY AND COMPANY, priority 1998, dated 2009).

Where no end group is shown, it is not given here.

In test [1] the test system is patients having non-insulin dependent diabetes (NIDDM). The test is described as follows: Overnight subcutaneous infusion in NIDDM patients, blood glucose (Example 1). The class given is in vivo.
Another test concerns NIDDM patients. The test is described as follows: Infusion during meals in NIDDM patients, blood glucose (Example 2). The class given is in vivo. The note with it: while infused, three hours during breakfast, lunch and dinner; compared with insulin injection; five NIDDM patients.

Consider “GLP-1(7-36) amide (HAEGTFTSDVSSYLEGQAAKEFIAWLVKGR-NH2; UniProt P01275 98-127, looked up, fragment) [truncated glucagon-like peptide 1, C-terminal amide]”, for which the metabolic control entry in test [1] (compared with continuous insulin infusion, average blood glucose significantly lower at 23:00, 0:00 and 1:00) is “better than that achieved by insulin”. Further, in test [1] (subcutaneous infusion 1.2 pmol/kg/hr, ten hours during the night, five NIDDM patients), the “effect on blood glucose” value is “nearly normalized blood glucose”. For the same substance, in the test on NIDDM patients, the post-prandial glucose excursions entry is “eliminated”.
